The experiment concerns the target T1, Oncostatin M (OSM, rhOSM) (Homo sapiens, UniProt P13725).
T1 construct: residues 1–187
T1 sequence (P13725 26-212): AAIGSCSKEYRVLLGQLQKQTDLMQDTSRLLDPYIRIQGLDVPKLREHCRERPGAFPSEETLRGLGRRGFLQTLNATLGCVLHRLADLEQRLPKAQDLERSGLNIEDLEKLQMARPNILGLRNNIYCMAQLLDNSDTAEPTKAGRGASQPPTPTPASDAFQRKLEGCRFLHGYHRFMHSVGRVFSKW
Put plainly: 1H, […] HSQC NMR titration (chemical shift perturbation); fluorescence quenching (Kd […]). Format: binding.

The text below walks through data of PMC8355150, “Bioactive recombinant human oncostatin M for NMR-based screening in drug discovery” (Scientific Reports, 2021).

SMILES strings stand for the structures.

In general, Kd refers to the free concentration of one partner at which half of the binding sites on the other are occupied at equilibrium, for simple one-to-one binding. With `O=C(O)/C=C/c1cc(-c2ccc3c(c2)OCO3)c(-c2ccc3c(c2)OCO3)o1` [OSM-SMI-10B], the Kd was found to be 12.2 ± 3.9 µM.
